{"source": "patent US20220106275A1", "about": "“RADIOLABELED COMPOUNDS AND USES THEREOF” (The Trustees of Columbia University in the City of New York, priority 2019, published 2022)", "key": {"[1]": {"test_system": "COX-2-positive BxPC3 cells", "experiment": "Cell uptake of [18F]FMTP in COX-2-positive BxPC3 cells, with blocking", "type": "cell-based, human"}, "[2]": {"test_system": "COX-2", "details": "cited from earlier work"}, "[3]": {"test_system": "COX-2", "details": "baboon brain; cited from earlier work"}, "[4]": {"molecular_target": "T1, COX-2 (Homo sapiens, UniProt P35354)", "T1 sequence (P35354 18-604)": "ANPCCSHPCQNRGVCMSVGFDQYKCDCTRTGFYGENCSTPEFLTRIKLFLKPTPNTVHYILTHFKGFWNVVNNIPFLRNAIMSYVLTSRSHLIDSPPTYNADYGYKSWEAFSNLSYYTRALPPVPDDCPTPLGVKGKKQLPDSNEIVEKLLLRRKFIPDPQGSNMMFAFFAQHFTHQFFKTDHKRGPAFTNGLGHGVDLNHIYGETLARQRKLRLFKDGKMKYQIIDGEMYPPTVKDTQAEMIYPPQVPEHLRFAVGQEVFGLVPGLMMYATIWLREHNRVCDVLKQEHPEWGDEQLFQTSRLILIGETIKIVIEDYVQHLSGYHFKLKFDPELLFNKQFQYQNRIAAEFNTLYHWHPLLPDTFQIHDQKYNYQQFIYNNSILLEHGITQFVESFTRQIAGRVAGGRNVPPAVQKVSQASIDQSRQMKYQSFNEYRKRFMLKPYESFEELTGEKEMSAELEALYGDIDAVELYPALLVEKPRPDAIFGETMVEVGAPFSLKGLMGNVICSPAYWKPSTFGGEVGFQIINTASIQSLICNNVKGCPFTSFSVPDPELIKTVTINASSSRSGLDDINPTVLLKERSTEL", "details": "cited from earlier work"}, "[5]": {"molecular_target": "T2, COX-2 (Mus musculus, UniProt Q05769)", "T2 construct": "from tissue; host or cells: brain of living male white mice, LPS- or PBS-injected", "T2 sequence (Q05769 18-604)": "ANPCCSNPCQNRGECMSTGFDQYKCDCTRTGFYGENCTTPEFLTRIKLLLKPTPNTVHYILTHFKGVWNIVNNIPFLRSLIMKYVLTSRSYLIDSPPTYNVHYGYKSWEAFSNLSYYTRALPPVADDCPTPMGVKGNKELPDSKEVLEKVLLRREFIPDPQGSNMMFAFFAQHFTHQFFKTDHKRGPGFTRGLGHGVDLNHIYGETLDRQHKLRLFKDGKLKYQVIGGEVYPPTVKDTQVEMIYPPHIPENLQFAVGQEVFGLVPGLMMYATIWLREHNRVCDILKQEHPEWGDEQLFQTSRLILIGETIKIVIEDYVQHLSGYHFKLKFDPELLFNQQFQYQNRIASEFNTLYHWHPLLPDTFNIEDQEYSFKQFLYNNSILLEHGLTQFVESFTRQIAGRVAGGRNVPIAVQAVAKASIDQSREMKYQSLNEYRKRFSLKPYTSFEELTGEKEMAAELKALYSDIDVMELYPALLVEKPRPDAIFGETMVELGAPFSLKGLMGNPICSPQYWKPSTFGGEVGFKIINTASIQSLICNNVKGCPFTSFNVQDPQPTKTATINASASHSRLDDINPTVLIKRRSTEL", "experiment": "MicroPET imaging of [18F]FMTP in LPS-induced neuroinflammation mice vs PBS-treated mice", "type": "in vivo", "details": "24 hours after intracranial 5 μg LPS (FIG. 5)", "description": "(§1) The radiochemical synthesis of [^18F]FMTP and [^18F]FMPP were optimized using a chlorine-to-fluorine displacement method, by reacting ^18F-fluoride/K222/K2CO3 with the corresponding chlorine precursor molecules. […] Dynamic microPET image acquisition was performed in anesthetized nude mice, LPS-induced neuroinflammation mice, and PBS-administered control mice using […].\nAnimals (male white mice) were anesthetized with isoflurane (l %-2% isoflurane in 100% oxygen) using a nose cone, and a 29-gauge needle connected to a catheter was placed into the lateral tail vein. For neuroinflammation, mice were stereotactically injected with 5 μg of LPS or PBS (controls) in the brain and imaging experiments conducted 24 hours later. […] The standardized uptake values (“SUVs”) were estimated using a calibration factor calculated from the phantom study and time activity curves (“TACs”) were derived from VOIs in the series of reconstructed images.\nFIGS. 3A-3D show the summed early frames (0-10 minute) and total frames (0-40 minute) of microPET images. […] TACs also indicated an initial rapid influx of radioactivity followed by rapid washout (FIG. 4). […] Highest radioactivity outside the heart was found in liver, and the delay to peak at 5-10 minutes was probably due to the accumulation of radioactive metabolite(s). […]"}, "[6]": {"test_system": "COX-2-negative PANC-1 cells", "experiment": "Cell uptake of [18F]FMTP in COX-2-negative PANC-1 cells, with blocking", "type": "cell-based, human", "description": "as §1\nBxPC3 and PANC-1 human pancreas carcinoma cell lines were plated on a 24-well plate at 2×10^5 cells/well. After 48 hours, [^18F]FMTP was added (2.0 μCi/mL) to the cell medium for 30 minutes. […] After incubation with [^18F]FMTP, cells were washed 4 times with cold PBS, lysed with 0.1 N NaOH, and counted in a gamma counter (Hidex AMG, LabLogic, Tampa, Fla.).\nProof-of-concept and selectivity of [^18F]FMTP binding to COX-2 was examined by evaluating the tracer uptake in COX-2-positive BxPC3 and a control COX-2-negative PANC1 human pancreatic carcinoma cell lines. FIG. 2 illustrates a >2-fold uptake of [^18F]FMTP in BxPC3 cells compared with PANC1 cells. Values shown in FIG. 2 are the mean±standard deviation (“SD”) from four independent experiments."}, "[7]": {"experiment": "Dynamic microPET imaging of [18F]FMTP in normal mice", "type": "in vivo", "description": "as §1\nAnimals (male white mice) were anesthetized with isoflurane (l %-2% isoflurane in 100% oxygen) using a nose cone, and a 29-gauge needle connected to a catheter was placed into the lateral tail vein. For neuroinflammation, mice were stereotactically injected with 5 μg of LPS or PBS (controls) in the brain and imaging experiments conducted 24 hours later. The animal was placed in prone position on the platform of the scanner and moved into the center of the field of view guided by laser beam calibration. Immediately after scan start, [^18F]FMTP (˜2.5 MBq […] in 20% ethanol-saline solution) was injected through the tail-vein catheter manually. The error caused by the injector and catheter was corrected by subtracting the remaining dose. 40-minute dynamic imaging was acquired on a microPET scanner (Siemens Inveon). The acquired list-mode data were reconstructed with 3D ordered subset expectation maximization (OSEM) algorithm using the software of Siemens Inveon Acquisition Workplace with a framing protocol of 2×30 seconds, 4×60 seconds, 3×120 seconds, 3×180 seconds, and 4×300 seconds. Using PMOD software (version 4.0, Switzerland), three-dimensional ellipsoid volume of interests (“VOIs”) ranging from 2-to-6 mm were placed manually at the center of the brain, heart (blood-pool), liver, proximal humerus (bone), and posterior cervical muscle. The standardized uptake values (“SUVs”) were estimated using a calibration factor calculated from the phantom study and time activity curves (“TACs”) were derived from VOIs in the series of reconstructed images.\nFIGS. 3A-3D show the summed early frames (0-10 minute) and total frames (0-40 minute) of microPET images. Crosses in FIGS. 3A-3D represent the region with brain. […] TACs also indicated an initial rapid influx of radioactivity followed by rapid washout (FIG. 4). The uptake of [^18F]FMTP peaked around 1 minute in heart and brain, and then decreased rapidly. The absence of retention of [^18F]FMTP activity in these organs was predicted due to low COX-2 expression in normal mouse brain. Highest radioactivity outside the heart was found in liver, and the delay to peak at 5-10 minutes was probably due to the accumulation of radioactive metabolite(s). […] The binding of [^18F]FMTP in LPS-induced neuroinflammation in mice was studied in comparison to vehicle (PBS)-treated-mice. Intracranial injection of LPS in mice is known to generate COX-2 induction and neuroinflammation after around 24 hours. Therefore, PET imaging of LPS treated mice was performed after 24 hours with [^18F]FMTP, and an approximately 2-fold increase of tracer binding was found in brain compared with PBS-treated mice (FIG. 5). […] MicroPET data correlated with autoradiography performed in brain sections of microPET imaged animals using [^18F]FMTP."}, "[8]": {"test_system": "xenografts", "details": "cited from earlier work"}}}
{"smiles": "CS(=O)(=O)c1ccc(-c2nc(F)cc(NCc3nccs3)n2)cc1", "note": "[FMTP]", "values": [{"measurement": "blocking of [18F]FMTP binding in BxPC3 cells", "setting": "[1]; blocker 5 μM added 30 minutes before [18F]FMTP", "result": "substantially blocked"}]}
{"smiles": "COc1cc(NCc2cccs2)nc(-c2ccc(S(C)(=O)=O)cc2)n1", "note": "[MC1]", "values": [{"measurement": "specific binding in CNS and periphery organs", "setting": "[2]; cold (non-radiolabeled) MC1", "result": "no specific binding"}]}
{"smiles": "CS(=O)(=O)c1ccc(-c2nc(NCc3cccs3)cc(O[11CH3])n2)cc1", "note": "[[^11C]MC1, [^11C]-6-methoxy-2-(4-(methylsulfonyl)phenyl)-N-(thiophen-2-ylmethyl)pyrimidin-4-amine]", "values": [{"measurement": "binding to COX-2 in neuroinflammation", "setting": "[2]; animal models of neuroinflammation", "result": "increased binding to COX-2"}, {"measurement": "detection of constitutive or low level COX-2 in brain", "setting": "[2]; conditions without inflammation", "result": "failed to detect"}]}
{"smiles": "CS(=O)(=O)c1ccc(-c2noc(C(F)(F)F)c2-c2ccccc2)cc1", "note": "[[^11C]TMI, [^11C]-3-(4-methylsulfonylphenyl)-4-phenyl-5-trifluoromethyl isoxazole]", "values": [{"measurement": "blocking of constitutive COX-2 level in brain", "setting": "[3]", "result": "partial blocking"}]}
{"smiles": "CS(=O)(=O)c1ccc(-c2nc(F)cc(NCc3nccs3)n2)cc1", "note": "[[^18F]FMTP, [^18F]-6-fluoro-2-(4-(methylsulfonyl)phenyl)-N-(thiazol-2-ylmethyl)pyrimidin-4-amine]", "values": [{"measurement": "IC50", "setting": "[4]", "result": 2.5, "unit": "nM"}]}
{"smiles": "CS(=O)(=O)c1ccc(-c2nc([18F])cc(NCc3nccs3)n2)cc1", "note": "[[^18F]FMTP, [^18F]-6-fluoro-2-(4-(methylsulfonyl)phenyl)-N-(thiazol-2-ylmethyl)pyrimidin-4-amine]", "values": [{"measurement": "increase of tracer binding in brain of LPS-treated compared with PBS-treated mice", "setting": "[5]", "result": "approximately 2 fold"}, {"measurement": "uptake of [18F]FMTP in BxPC3 cells compared with PANC1 cells", "setting": "[1]; 2.0 μCi/mL, 30 minutes, mean of four independent experiments (FIG. 2)", "result": "> 2", "unit": "fold"}, {"measurement": "binding to PANC1 cells", "setting": "[6]; 2.0 μCi/mL, 30 minutes", "result": "negligible binding"}, {"measurement": "specific binding in PANC1 cells with FMTP or celecoxib block", "setting": "[6]; blockers 5 μM", "result": "no specific binding"}, {"measurement": "uptake in spine and skeleton (de[18F]fluorination)", "setting": "[7]; microPET", "result": "did not show uptake in spine and skeleton"}, {"measurement": "washout of activity from brain", "setting": "[7]; microPET, 0-40 minute", "result": "fast washout"}, {"measurement": "BBB penetration", "setting": "[7]; microPET, tail-vein injection", "result": "penetrated the BBB"}, {"measurement": "time of peak uptake in heart and brain", "setting": "[7]; time activity curves (FIG. 4)", "result": "around 1 minute"}, {"measurement": "time of peak radioactivity in liver", "setting": "[7]; time activity curves, delay ascribed to radioactive metabolite(s)", "result": "5 to 10", "unit": "min"}]}
{"smiles": "CS(=O)(=O)c1ccc(-c2cc(C(F)(F)F)nc(NCc3ccc([18F])cc3)n2)cc1", "note": "[[^18F]Pyricoxib]", "values": [{"measurement": "binding in xenografts in vivo", "setting": "[8]", "result": "only modest binding"}, {"measurement": "uptake in brain", "setting": "[8]; in vivo", "result": "did not show significant uptake in brain"}]}
